Source: the NIST ThermoML archive (doi:10.1016/j.fluid.2017.05.010)
± gives the expanded uncertainty stated by the source.

Details: Liquid; Resistive pulse heating

| Critical pressure [kPa] | Critical temperature [K] | Structure (SMILES) |
| --- | --- | --- |
| 3810 ± 110 | 628 ± 6 | CCc1ccccn1 [2-ethylpyridine] |
| 3250 ± 100 | 656 ± 7 | CCc1ccc(C)nc1 [3-ethyl-6-methylpyridine] |
| 4190 ± 130 | 651 ± 7 | CCc1cccnc1 [3-ethylpyridine] |
| 4190 ± 130 | 653 ± 7 | CCc1ccncc1 [γ-ethylpyridine] |
